We go through 2 compounds from patent publication US8664275B2, “Crystalline form of Bimatoprost, preparation method and use thereof” (Shanghai Techwell Biopharmaceutical Co., Ltd., priority 2009, dated 2014).

This data set in a line: Comparison of stability: sealed storage at 40° C., HPLC purity. Format: physicochemical. The note with it: for degradation in stability test: sealed storage for 4 days at 40° C. The source says:
The crystalline form A of Bimatoprost of the invention has specific stability, which is favorable for storage. The inventors compare the stability of the crystalline form A prepared by the method of the invention with that of the crystalline form B prepared in the prior art by stability test. […] Degradation products of the crystalline form B include a compound II and a compound III. […] As used herein, the term “HPLC purity” refers to the percentage of peak area of the compound as shown in formula I that is subject to HPLC detection and then area normalization according to the obtained chromatogram in the total peak area. The HPLC detection method is as follows: Chromatographic column: 4.6×150 mm 3 μm C18 column; column temperature: 35° C.; mobile phase: A: acetonitrile: water (20 mM potassium phosphate buffer solution; pH=2.8) 20:80; B: acetonitrile: water (20 mM potassium phosphate buffer solution; pH=2.8) 40:60; gradient elution conditions: A:B=100: 0, 1 min; A:B=100:0-40:60, 16 min; A:B=40:60, 4 min; A:B=40:60-100:0, 1 min. Flow rate: 1 ml/min; main peak retention time: around […]; sample volume 15 μl; column temperature: 35° C.±5° C.; detection wavelength: 210 nm; running time: 40 min. A sample of the crystal A of Bimatoprost prepared by Example 4 was taken (0.8 g; HPLC purity: 99.7%) and divided into 4 parts of equal amount; and the 4 parts were respectively hermetically placed under 40° C. for 1 day, 2 days, 3 days and 4 days and then sampled for analysis, wherein HPLC purity was 99.7%, 99.7%, 99.7% and 99.7% respectively. A sample of the crystal B of Bimatoprost prepared by Example 2 was taken (0.8 g; HPLC purity: 99.6%) and divided into 4 parts of equal amount; and the 4 parts were respectively hermetically placed under 40° C. for 1 day, 2 days, 3 days and 4 days and then sampled for analysis, wherein HPLC purity was 99.4%, 99.2%, 99.1% and 98.7% respectively.

Turning to `CCNC(=O)CCC/C=C\C[C@@H]1[C@@H](/C=C/[C@@H](O)CCc2ccccc2)[C@H](O)C[C@@H]1O` [crystalline form B, (Z)-7-[(1R,2R,3R,5S)-3,5-dihydroxyl-2-[(E,3S)-3-hydroxyl-5-phenylpent-1-enyl]cyclopentyl]-N-ethylhept-5-eneamide], the “degradation in stability test” value was “obviously degrades”. Also, the HPLC purity (hermetically placed under 40° C. for 1 day, listed as crystal B of Bimatoprost) was 99.4%. Also, where the note is “hermetically placed under 40° C. for 2 days, listed as crystal B of Bimatoprost”, the HPLC purity is listed as 99.2%. The compound also had an HPLC purity (hermetically placed under 40° C. for 3 days, listed as crystal B of Bimatoprost) of 99.1%. For the same compound, the HPLC purity (hermetically placed under 40° C. for 4 days, listed as crystal B of Bimatoprost) is 98.7%. Under “sample before storage (initial), listed as crystal B of Bimatoprost”, the HPLC purity is 99.6%.
With `CCNC(=O)CCC/C=C\C[C@@H]1[C@@H](/C=C/[C@@H](O)CCc2ccccc2)[C@H](O)C[C@@H]1O` [crystalline form A, (Z)-7-[(1R,2R,3R,5S)-3,5-dihydroxyl-2-[(E,3S)-3-hydroxyl-5-phenylpent-1-enyl]cyclopentyl]-N-ethylhept-5-eneamide], the “degradation in stability test” value is reported as “does not degrade”. Also, the HPLC purity (hermetically placed under 40° C. for 1 day, listed as crystal A of Bimatoprost) is listed as 99.7%. This compound also returned an HPLC purity (hermetically placed under 40° C. for 2 days, listed as crystal A of Bimatoprost) of 99.7%. Under “hermetically placed under 40° C. for 3 days, listed as crystal A of Bimatoprost”, this compound had an HPLC purity of 99.7%. For the same compound, the HPLC purity (hermetically placed under 40° C. for 4 days, listed as crystal A of Bimatoprost) is listed as 99.7%. In addition, the HPLC purity (sample before storage (initial), listed as crystal A of Bimatoprost) worked out at 99.7%.
